Laboratory results published in patent US11472787B2, “Docosahexaenoic acid endocannabinoid epoxide derivative compositions” (The Board of Trustees of the University of Illinois, priority 2017, dated 2022).

How the values were obtained:
BV-2 microglial cells = assay: Anti-inflammatory assay in LPS-stimulated microglial cells; assay type: cell-based, mouse; conditions: BV-2 cells, 4 hours pre-incubation, 25 ng/mL LPS
Experimental: The anti-inflammatory effect of parent compounds was tested by measuring nitrite production in Bv2 microglial cells and the reduction in pro-inflammatory cytokine IL-6 (FIG. 4). Experiments were performed with mouse BV-2 microglial cells. Cells were grown and maintained in Dulbecco's modified Eagle's medium supplemented with 10% fetal bovine serum, 1% streptomycin and penicillin at 37° C. in a 5% CO2 humidified air atmosphere. BV-2 cells were seeded in 24-well plates (200K cells/mL) and grown to 80-90% confluency. For regioisomer screening and dose response studies, media was replaced with serum-free media and the cells were pre-incubated with the regioisomers for 4 hours prior to stimulation with 25 ng/mL LPS (Sigma-Aldrich, USA). Production of nitric oxide (NO) and cell toxicity and IL-6 production were measured.

[1] = biological target: Fatty acid amide hydrolase (FAAH) (Sus scrofa (Pig), UniProt Q9TUI8); assay: Susceptibility to FAAH hydrolysis in pig brain membrane preparations; conditions: pig forebrain membranes, amide at 20 μM, 40 min
Experimental: Fatty acid amide hydrolase (FAAH) is a ubiquitously expressed protein in various mammals and the sequence of the protein has shown to be highly conserved in humans, mouse and pig. […] The preparation of pig forebrain membranes was achieved using dounce homogenization in buffer (50 mM Tris pH 7.4, 1 mM EDTA and 3 mM MgCl2) and membrane pelleting as previously described (Hillard, C. J.; Wilkison, D. M.; Edgemond, W. S.; Campbell, W. B. Characterization of the kinetics and distribution of N-arachidonylethanolamine (anandamide) hydrolysis by rat brain. Biochim Biophys Acta 1995, 1257, 249-56). Incubations contained 5 μg forebrain protein in a 0.5 mL reaction containing 50 mM Tris (pH 7.4), 1 mM EDTA, 3 mM MgCl2, and amide at 20 μM. At 40 min reactions were quenched with methanol containing 1 mM PMSF and centrifuged to pellet protein (10,000 g×10 min). The supernatant was collected and analyzed via LC-MS/MS as outlined below.
The products of hydrolysis were measured by LC-MS/MS as indicated in materials and methods section.

HOS cells [2] = assay: Annexin V binding apoptosis assay in HOS cells; assay type: cell-based; conditions: 12.5 μM, 24 hours
Experimental: (§1) All three amino-modified derivatives of 10,11-EDP were tested for their apoptotic activity using a BD biosciences Annexin V binding assay for apoptosis at 12.5 μM concentration (FIG. 2). Cells were grown and maintained in Dulbecco's modified Eagle's medium supplemented with 10% fetal bovine serum, 1% streptomycin and penicillin at 37° C. in a 5% CO2 humidified air atmosphere in 12 well plate to 90% confluency and then appropriate amount of compound or control was added to the well. The cells were incubated for 24 hours and then prepared for apoptosis assays as indicated in BD biosciences Annexin V binding assay kit instructions and analyzed by BD Accuri C6 flow cytometer and FCS flow software. […] However, their effects were not consistent in trend among the three cell lines. The cyclopropyl analog seemed to have the highest pro-apoptotic potential among the three within error limits. […] In 143B cells the increase in pro-apoptotic potential was only 18.8±0.3% for the iso-propyl derivative as compared to 25.7±0.4% for the n-propyl derivative.

MG63 cells [3] = assay: Scratch (wound migration) assay in MG63 cells; assay type: cell-based; conditions: MG63 cell line
Experimental: (§2) A scratch assay was performed to analyze the anti-migratory properties of the three derivatives (FIGS. 3A-3C and 7). Cells were grown and maintained in Dulbecco's modified Eagle's medium supplemented with 10% fetal bovine serum, 1% streptomycin and penicillin at 37° C. in a 5% CO2 humidified air atmosphere in a 12 well plate to a confluent monolayer and then a scratch was made across the center and images were taken. The media was changed and appropriate compounds and controls were added and images of the scratch were taken every 2 hours. The images were processed by ImageJ software. In HOS cells (FIG. 3A), all 10,11-EDP derivatives restricted wound migration at 5 μM concentration.

HOS cells [4] = assay: Scratch (wound migration) assay in HOS cells; assay type: cell-based; conditions: 5 μM; for restriction of wound migration as compared to control: over 10 hours
Experimental: as §2

CNR1 (CB1) = CNR1 (CB1) (Homo sapiens (Human), UniProt P21554); assay: Presto-Tango β-arrestin recruitment assay, CNR1; assay type: cell-based; conditions: HTLA cells
Experimental: (§3) Binding of the parent compounds to putative receptors CNR1 and CNR2 (cannabinoid receptors 1& 2) was measured by a Presto-Tango assay (FIG. 5A and FIG. 5B). […] HTLA were received from the Roth Lab and CNR1 and CNR2 plasmids were purchased from Addgene. HTLA cells were maintained in DMEM with 10% FBS containing 2 μg/mL of puromycin and 100 μg/mL of hygromycin B at 37° C. in a 5% CO2 humidified air atmosphere and grown to 80-90% confluency. Cells were then seeded at 20,000 cells per 100 uL into poly-L-lysine coated 96-well plate. After 18-24 hrs, cells were transfected with CNR2 (0.1 ug/well) using Calfectin as the transfection reagent. Transfection media was replaced after 12-18 hours with serum-media and proceeded for ˜36 hours. On the day of the assay, serum-media was replaced with serum-free media for 4 hours, then the compounds were added in a log dose manner in DMSO to a final well volume of 200 uL and incubated overnight. The next day, media was removed and 20 μL of Bright-Glo solution was added to the cells and incubated for 20 min at room temperature in the dark and measured for luminescence. Relative luminescence units (RLU) values were normalized to % receptor response, plotted as a function of compound concentration and analyzed using “DoseResp” in OriginPro.

MG63 cells [5] = assay: Annexin V binding apoptosis assay in MG63 cells; assay type: cell-based; conditions: 12.5 μM, 24 hours
Experimental: as §1

143B cells [6] = assay: Scratch (wound migration) assay in 143B cells; assay type: cell-based
Experimental: as §2

CNR2 (CB2) = CNR2 (CB2) (Homo sapiens (Human), UniProt P34972); assay: Presto-Tango β-arrestin recruitment assay, CNR2; assay type: cell-based; conditions: HTLA cells
Experimental: as §3

143B cells [7] = assay: Annexin V binding apoptosis assay in 143B cells; assay type: cell-based; conditions: 12.5 μM, 24 hours
Experimental: as §1

HUVEC cells = assay: Endothelial tube formation (angiogenesis) assay on matrigel; assay type: cell-based; conditions: 0.5 μM or 1 μM compound, 5 hours
Excerpt: Increased angiogenesis is one of the hallmarks of cancer. The development of neo-vascularization is key for the adequate supply of nutrients and oxygen to the site of metastasis. Endothelial tube formation on matrix has been established as a cellular model for angiogenesis. Endothelial HUVEC cells form a networks of tubes when plated on matrigel and the tube formation in presence and absence of treatment can be quantified as a measure of restricted angiogenic potential.
Angiogenesis in endothelial HUVEC cells was measured using abcam angiogenesis kit (ab204726). Briefly, HUVEC cells at passage 2 (p=2) were grown to 80% confluency. The matrigel provided was thawed overnight and 50 μL was put into each well of a 96 well plate that had been chilled overnight in a −20° C. freezer. The plate was rocked slightly and then allowed to incubate at 37° C. for 1 hour. 15,000 HUVEC cells were then plated into the wells and were treated with vehicle control or 0.5 μM or 1 μM compound. A no matrix control and a control with vinblastine (inhibitor of angiogenesis) was also performed. All wells were performed in duplicates. The plates were then incubated for 5 hours at 37° C. […] The wells were imaged using a fluorescent microscope and analyzed using ImageJ with Angiogenesis Analyzer Plugin. […] The tube formation was assessed by Image J analysis.

Fatty acid amide hydrolase (FAAH), sequence (Q9TUI8 whole entry): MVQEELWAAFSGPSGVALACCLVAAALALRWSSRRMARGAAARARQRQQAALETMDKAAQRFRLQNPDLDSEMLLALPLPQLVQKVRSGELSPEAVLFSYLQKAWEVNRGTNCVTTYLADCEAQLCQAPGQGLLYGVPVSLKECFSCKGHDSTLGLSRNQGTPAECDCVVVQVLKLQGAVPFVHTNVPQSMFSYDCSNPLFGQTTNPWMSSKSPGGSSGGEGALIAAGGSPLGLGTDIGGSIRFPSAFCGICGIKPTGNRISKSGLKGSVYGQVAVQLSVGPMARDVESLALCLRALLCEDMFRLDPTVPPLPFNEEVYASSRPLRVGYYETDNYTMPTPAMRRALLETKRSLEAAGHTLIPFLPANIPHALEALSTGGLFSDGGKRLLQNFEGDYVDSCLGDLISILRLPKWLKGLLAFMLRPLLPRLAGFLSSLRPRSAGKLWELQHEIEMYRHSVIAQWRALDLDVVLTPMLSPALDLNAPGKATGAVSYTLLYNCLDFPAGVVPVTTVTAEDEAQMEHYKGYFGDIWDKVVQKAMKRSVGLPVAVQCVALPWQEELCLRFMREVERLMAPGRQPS

CCC1OC1C/C=C\C/C=C\C/C=C\C/C=C\C/C=C\CCC(=O)NCCO (stereo not shown) [19,20-EDP-EA] was tested, and the IL-6 production (BV-2 microglial cells) was “reduction in 11-6 and nitrite in a dose dependent manner”, the nitrite production (BV-2 microglial cells) was “reduction in 11-6 and nitrite in a dose dependent manner” and the rate of hydrolysis [1] was 150 pmol min^−1 mg protein^−1.

In the case of CC/C=C\C/C=C\C/C=C\CC1OC1C/C=C\C/C=C\CCC(=O)NC(C)CO (stereo not shown) [10,11-EDP-IA, (4Z,7Z)—N-(1-Hydroxypropan-2-yl)-9-(3-((2Z,5Z,8Z)-undeca-2,5,8-trien-1-yl)oxiran-2-yl)nona-4,7-dienamide], the “apoptosis (apoptotic potential)” value (HOS cells [2]) is reported as 20.15±1.75%, the “restriction in wound healing as compared to the control” value (MG63 cells [3]) is reported as “slightly poorer than the control” and the “restriction of wound migration as compared to control” value (“restriction … compared to control” for short) (HOS cells [4]) is reported as 1-1.75 times. For the same compound, the EC50 (CNR1 (CB1)) was 0.07 nM, the “apoptosis (apoptotic potential)” value (MG63 cells [5]) was 17.48±2.8% and the “restriction in wound migration as compared to the control” value (143B cells [6]) was 1-3.9 times. The rate of hydrolysis [1] was 0.99±0.04 pmol min^−1 mg protein^−1, the EC50 (CNR2 (CB2)) was 0.08 nM and the “apoptosis (apoptotic potential)” value (143B cells [7]) was 18.8±0.3%.

CC/C=C\C/C=C\C/C=C\CC1OC1C/C=C\C/C=C\CCC(=O)NCCO (stereo not shown) [10,11-EDP-EA, reference compound] was tested, and the “restriction in wound healing as compared to the control” value (MG63 cells [3]) was 1-2 times, the “restriction … compared to control” value (HOS cells [4]) was 1.00-1.44 times and the EC50 (CNR1 (CB1)) was 0.43 nM. For the same compound, the “restriction in wound migration as compared to the control” value (143B cells [6]) was 1-1.9 times, the “tube formation (angiogenesis)” value (HUVEC cells) was “Prevent Angiogenesis” and the rate of hydrolysis [1] was 30.0±0.3 pmol min^−1 mg protein^−1. The EC50 (CNR2 (CB2)) was 22.5 nM.

CC/C=C\C/C=C\C/C=C\CC1OC1C/C=C\C/C=C\CCC(=O)NCCCO (stereo not shown) [10,11-EDP-NA, (4Z,7Z)—N-(3-Hydroxypropyl)-9-(3-((2Z,5Z,8Z)-undeca-2,5,8-trien-1-yl)oxiran-2-yl)nona-4,7-dienamide] was tested, and the “apoptosis (apoptotic potential)” value (HOS cells [2]) was 17.05±1.4%, the “restriction in wound healing as compared to the control” value (MG63 cells [3]) was “slightly poorer than the control” and the “restriction … compared to control” value (HOS cells [4]) was 1-1.7 times. For the same compound, the EC50 (CNR1 (CB1)) was 0.19 nM, the “apoptosis (apoptotic potential)” value (MG63 cells [5]) was 15.15±3.28% and the “restriction in wound migration as compared to the control” value (143B cells [6]) was 1-1.47 times. The EC50 (CNR2 (CB2)) was 7.3 nM and the “apoptosis (apoptotic potential)” value (143B cells [7]) was 25.7±0.4%.

In the case of CC/C=C\C/C=C\C/C=C\CC1OC1C/C=C\C/C=C\CCC(=O)NC1CC1 (stereo not shown) [10,11-EDP-CA, (4Z,7Z)—N-Cyclopropyl-9-(3-((2Z,5Z,8Z)-undeca-2,5,8-trien-1-yl)oxiran-2-yl)nona-4,7-dienamide], the “apoptosis (apoptotic potential)” value (HOS cells [2]) is reported as 27.19±4.05%, the “restriction in wound healing as compared to the control” value (MG63 cells [3]) is reported as “comparable to 10, 1-EDP-EA” and the “inhibition of migration more than vehicle control” value (HOS cells [4]; 8 and 10 hour time points) is reported as 4.5-6 times. The “restriction … compared to control” value (HOS cells [4]) was “most potent”, the EC50 (CNR1 (CB1)) was 0.03 nM and the “apoptosis (apoptotic potential)” value (MG63 cells [5]) was 17.09±4.4%. The “restriction in wound migration as compared to the control” value (143B cells [6]) was “most potent”, the rate of hydrolysis [1] was 5.17±0.06 pmol min^−1 mg protein^−1 and the EC50 (CNR2 (CB2)) was 0.46 nM. For the same compound, the “apoptosis (apoptotic potential)” value (143B cells [7]) was 21.3±1.9%.
